Several values for one entry are separate records, joined by “and”; a condition that tells them apart may be missing. Equal entries are not always repeated.
Tests used:
[1] = test system: TC-71 (EWS:Fli1+) xenograft tumor; settings: 1 mg/kg, five i.v. injections on alternating days
Procedure: In vivo anti-tumor efficacy. […] On alternating days following inoculation, body weight was recorded, and tumor volume was measured using digital calipers. As each mouse achieved a measurable tumor volume of 200 mm^3, they were randomly allocated saline control vehicle, blank polymer (nano-formulation without MithA conjugation), 1 mg/kg MithA, or 1 mg/kg MANP (1 mg/kg eq. MithA) treatment groups until n=10/group was reached. Mice received 5 intravenous injections of the designated treatment via tail vein, given on alternating day schedule (e.g. M-W-F-Su-Tu). After treatment, tumors were allowed to grow to 1.5 cm^3, at which point the mice were euthanized by CO2 inhalation (FIG. 4.1.). The tumor volume was calculated by the equation: Tumor volume=(L×W^2)/2, in which L and W are the longest and shortest in tumor diameters (mm), respectively. Survival duration was calculated as the number of days for tumor volume to increase from 200 to 1500 mm^3.
Statistical analysis. Microsoft Excel was used to organize data and obtain descriptive statistics (mean and standard deviation). […] For Western blot, tumor-bearing xenograft, and toxicity studies, one-way ANOVA with Bonferroni correction and multiple comparisons were performed using Prism 9. […] For xenograft studies, survival data were used to construct Kaplan-Meier plots and statistical significance of differences between treatment groups (n=10-11/group) was determined by the log-rank test. Differences were accepted as statistically significant when the p-value was ≤0.05.

[2] = test system: Rad51; experiment: Western blotting, Rad51 protein expression; format: cell-based; settings: 10 nM, 24 hours
Procedure: (§1) Western Blotting. Expression Western blotting was performed to assess the expression of NR0B1 (EWS:Fli1 target gene) and Rad 51 (DNA homologous recombination repair HRR) at protein level as provisory described in Lin et al 2021. Briefly, cells were grown to ˜70% confluence and exposed to 10 nM of MithA/MANP (final concentration) or DMSO, (0.01% v/v) vehicle and blank polymer for 24 hours. Lysates were collected in cold RIPA lysis buffer supplemented with 1×HALT protease/phosphatase inhibitor cocktail (Thermo Scientific) and clarified by centrifugation. Protein concentration of the supernatant was determined by BCA assay (Thermo Scientific), and then diluted in 4× loading buffer (Licor Inc., Lincoln, Nebr.) containing 1× NuPAGE reducing agent (Life Technologies). Prior to electrophoresis, samples were denatured by incubating at 70° C. for 10 minutes. Samples were then resolved (25 μg/lane) on 4-20% gradient SDS-PAGE gels and transferred to low-fluorescence PVDF membranes (Bio-Rad Inc., Hercules Calif.). Transfer efficiency and equivalence of total protein load was assessed using Revert 700 Total Protein Stain kits (Licor Inc). Membranes were then washed, blocked in Odyssey Blocking Buffer (PBS) (Licor Inc), and incubated with primary antibodies (Table S4.3 above) overnight at 4° C. diluted in blocking buffer.

[3] = cited from earlier work
[4] = test system: Female C57BL/6J mice; experiment: In vivo toxicity: liver weight and histopathology
Procedure: (§2) In vivo toxicity of MithA and MANP. Cohorts of n=6-7 C57BL/6J females, 8-10 wko were randomized to receive either intravenous or intraperitoneal administration of saline control vehicle, blank polymer, MithA, or MANP as described in TABLES 2A and 2B. Body weight loss exceeding 20%, death, morbidity, changes in behavior, and any other sign of local or systemic toxicity were recorded.
The liver was harvested for histopathological assessment, weighed, and fixed in 4% paraformaldehyde for 24 hours in the 4° C. and processed for and embedded in paraffin. After embedding, sections were cut at […] thickness and mounted on poly-L-lysine-coated glass slides. Sections were stained with Ehrlich's Hematoxylin and Eosin-Phloxine solutions, Periodic Acid-Schiff (+/− pretreatment with 1% Diastase for 30 min), or Hall's Bile stain with Picrosirius red counter stain. Slides were then dehydrated, cover slipped and imaged on Nikon E800 microscope for qualitative assessment of liver injury. In vivo toxicity of Mitha and MANP study design. (A) study design for supplemental figures. (B) study design for FIGS. 11A-11Q.

[5] = test system: NR0B1; experiment: Western blotting, NR0B1 protein expression; format: cell-based; settings: 10 nM, 24 hours; compared with saline control, p<0.0471
Procedure: as §1

[6] = test system: Female C57BL/6J mice; experiment: In vivo toxicity: hematology; design: lymphocytes (% WBC) / granulocytes (% WBC): concentration or dose not given beside the values
Procedure: as §2
For hematology, blood was collected 24 h after the last dose by venipuncture of the tail or mandibular veins. Blood (>100 uL) was transferred to Sarstedt EDTA tubes and held on ice until differential complete blood count was performed using Abaxis VetScan HM2 hematology analyzer (Union City, Calif.). Samples were analyzed within 8 hours of collection. Giemsa-stained blood smears were also obtained for manual differentiation of granulocytes, as the instrument is not able to discriminate neutrophils, eosinophils, or basophils due to inefficient lysis of mouse granulocytes by this system.

[7] = test system: THP-1; experiment: XTT cell viability assay, THP-1; format: cell-based; settings: Homo sapiens, THP-1, 72 h, read-out: Viability IC50
Procedure: (§3) Cell viability assays. For viability assays, four EWS:Fli1 fusion tumor cell lines (RD-ES, SK-ES-1, A673, and TC-71), one human embryonic kidney cell line (293.T), one ES tumor cell line with ERG fusion (CHLA-25), one fetal kidney cell line (HEK293.T), one hepatoblastoma cell line (HepG2), one chronic myeloid leukemia (MEG-01), and one acute monocytic leukemia (THP-1) cell line were plated at 5000 cells/well in 100 μL growth media in 96-well plates. After overnight incubation, 50 μL of growth media containing mithramycin A (MithA) (Cayman Chemical, Ann Arbor, Mi. Item Number 11434) or boronic acid-conjugated nano-MithA (MANP) (0.12 nM to 500 nM, final) or dimethyl sulfoxide (DMSO, 0.01% v/v) vehicle was added to the wells, and cell viability assays were performed 72 hours later. The cells were incubated with the activated-XTT solution (mixture of 2% final concentration of activation reagent with the XTT reagent) from ATCC (Catalog Number 30-1011K, XTT Cell Proliferation Assay Kit) for 3 hours prior to recording absorbance. The cell viability was determined by measuring the absorbance wavelength at 475 nm and reference wavelength at 650 nm on an Infinite M200 plate reader (Tecan Group, Ltd. Mannedorf, Switzerland). […]

[8] = test system: SK-ES-1; experiment: XTT cell viability assay, SK-ES-1; format: cell-based; settings: Homo sapiens, SK-ES1, 72 h, read-out: Viability IC50
Procedure: as §3

[9] = test system: RD-ES; experiment: XTT cell viability assay, RD-ES; format: cell-based; settings: 72 h, read-out: Viability IC50
Procedure: as §3

[10] = five doses 2 mg/kg (eq) on alternating days
[11] = 5x2 mg/kg i.v., in comparison to saline vehicle

CO[C@H](C(=O)[C@@H](O)[C@@H](C)O)[C@@H]1Cc2cc3cc(O[C@H]4C[C@@H](O[C@H]5C[C@@H](O)[C@H](O)[C@@H](C)O5)[C@H](O)[C@@H](C)O4)c(C)c(O)c3c(O)c2C(=O)[C@H]1O[C@H]1C[C@@H](O[C@H]2C[C@@H](O[C@H]3C[C@](C)(O)[C@H](O)[C@@H](C)O3)[C@@H](O)[C@@H](C)O2)[C@H](O)[C@@H](C)O1 [MithA, (2S,3S)-2-[(2S,4R,5R,6R)-4-[(2S,4R,5S,6R)-4-[(2S,4S,5R,6R)-4,5-dihydroxy-4,6-dimethyloxan-2-yl]oxy-5-hydroxy-6-methyloxan-2-yl]oxy-5-hydroxy-6-methyloxan-2-yl]oxy-3-[(1 S,3S,4R)-3,4-dihydroxy-1-methoxy-2-oxopentyl]-6-[(2S,4R,5R,6R)-4-[(2S,4R,5S,6R)-4,5-dihydroxy-6-methyloxan-2-yl]oxy-5-hydroxy-6-methyloxan-2-yl]oxy-8,9-dihydroxy-7-methyl-3,4-dihydro-2H-anthracen-1-one]
body weight in tumor-bearing mice [1]: no loss of body weight was observed | survival, range [1]: 12 to 35 days | median survival ([1]; days for tumor to grow from 200 to 1500 mm^3): 20 days | Rad51 protein expression [2]: Down-regulated | patients with reversible grade 4 ALT/AST elevation ([3]; dose escalation, single-agent therapy): 2/8 and 2 out of 8 | serum level reached ([3]; level hypothesized to inhibit EWS:Fli1 activity, not reached before adverse effects): < 0.05 µM | liver weight ([4]; 5 consecutive days i.p. 4 mg/kg, vs saline): liver weight reduction | liver weight ([4]; 5x2 mg/kg i.v. alternating days): liver weight reduction | liver histology ([4]; 5x4 mg/kg i.p.): periportal necrosis with central fatty degeneration, glycogen depletion and bile acid retention | liver histology, Hall's bile stain [4, 10]: retention of bile in large vacuoles | liver histology, Hematoxylin and Eosin stain [4, 10]: periportal hepatocellular necrosis and infiltrates of inflammatory cells, and distension of collecting ducts | liver histology, Periodic Acid-Schiff (glycogen) ([4]; five doses 2 mg/kg on alternating days): glycogen depletion | NR0B1 protein expression [5]: significantly suppressed | thrombocytopenia / platelet dysfunction ([6]; 5x2 mg/kg (eq.) i.v.): displayed thrombocytopenia | decrease of plateletcrit (%) [6, 11]: 3.4 fold | decrease of total platelet count [6, 11]: 3.6 fold | red blood cell (RBC) parameters ([6]; 5x4 mg/kg i.p.): no significant changes | total white blood cell (WBC) count ([6]; 5x4 mg/kg i.p., relative to controls): no significant difference | granulocytes (% Gran) ([6]; 5x4 mg/kg i.p., vs saline (P=0.001)): increased | lymphocytes (% LYM) ([6]; 5x4 mg/kg i.p., vs saline (p<0.0001)): decreased | monocytes (% MON) ([6]; 5x4 mg/kg i.p., vs saline (p=0.0187)): increased | lymphocytes (% WBC) ([6]; 5xmg/kg i.v., compared to saline vehicle): reduced | granulocytes (% WBC) ([6]; 5xmg/kg i.v., compared to saline vehicle (p<0.0001)): increased | RBC parameters ([6]; five i.v. injections on alternating days, between treatment groups): No changes | plateletcrit ([6]; single i.p. 4 mg/kg, vs saline): significant reductions | mean corpuscular hemoglobin ([6]; single i.p. 4 mg/kg, vs saline (p=0.002)): significant reductions | total platelet count ([6]; single i.p. 4 mg/kg, vs saline (p=0.0251)): significant reductions | IC50 [7]: 0.234 µM | IC50 [8]: 0.0119 µM | IC50 [9]: 0.0062 µM
